Assays:
Mus musculus [1] = organism: Mus musculus; experiment: Cytotoxicity was evaluated on mice spleen lymphocytes stimulated by Phaseolus Vulgaris Phytohemagglutininin (PHA) after 72 hours; format: functional; design: unit not given here
Mus musculus [2] = organism: Mus musculus; experiment: Cytotoxicity was evaluated on mice spleen lymphocytes stimulated by Phaseolus Vulgaris Phytohemagglutininin (PHA) after 48 hours; format: functional; design: unit not given here
Daudi = experiment: Concentration of compound to inhibit half of cell growth in malignant human lymphocytes: Daudi lymphoma cells; format: functional, cell-based; design: unit not given here
Mus musculus [3] = organism: Mus musculus; experiment: Cytotoxicity of compound was evaluated on mice spleen lymphocytes stimulated by Phaseolus Vulgaris Phytohemagglutininin (PHA) after 48 hours; format: functional

O=C1CC(O)[C@H]2OCC/C(=C\COCc3ccccc3)C2O1 (stereo not given in full)
IC50 (Mus musculus [1]): 13 | IC50 (Mus musculus [2]): 8.8 | IC50 (Daudi): 3.5

CCOC(=O)/C=C/C=C/[C@H]1OCC/C(=C\C(=O)OCC)[C@@H]1O[Si](C)(C)C(C)(C)C
IC50 (Mus musculus [1]): 1.1 | IC50 (Mus musculus [2]): 0.73 | IC50 (Daudi): 2.2

CCOC(=O)/C=C/[C@H]1OCC/C(=C\COCc2ccccc2)[C@@H]1O[Si](C)(C)C(C)(C)C
IC50 (Mus musculus [1]): 1.4 | IC50 (Mus musculus [2]): 0.7 | IC50 (Daudi): 0.6

COC(=O)CC(O)[C@H]1OCC/C(=C\COCc2ccccc2)C1O[Si](C)(C)C(C)(C)C (stereo not given in full)
IC50 (Mus musculus [1]): 20 | IC50 (Mus musculus [2]): 20 | IC50 (Daudi): 10

CCOC(=O)/C=C/[C@H]1OCC/C(=C\C(=O)OCC)[C@@H]1O[Si](C)(C)C(C)(C)C
IC50 (Mus musculus [1]): 17.6 | IC50 (Daudi): 9.3 | IC50 (Mus musculus [3]): 8.8 M ml-1
